Measured values reported in article PMC5564600 (Oncotarget, 2017).
Read-outs that look alike come from different tables or passages of the source.

Assays:
Assay in all cases: biochemical
Format in all cases: binding
[1] = target: T1, panel of 442 kinases (Homo sapiens, UniProt P04049); conditions: kinase RAF1; for remaining activity at 1 µM: read-out: RAF1 (% of control at 1 µM)
T1 construct: purchased Ambit Biosciences (scanMAXX KINOMEscan)

[2] = target: T2, panel of 442 kinases (Homo sapiens, UniProt P24723); conditions: kinase PRKCH; for remaining activity at 1 µM: read-out: PRKCH (% of control at 1 µM)
T2 construct: purchased Ambit Biosciences (scanMAXX KINOMEscan)

[3] = target: T3, panel of 442 kinases (Homo sapiens, UniProt Q32MK0); conditions: kinase MLCK; for remaining activity at 1 µM: read-out: % of control at 1 µM
T3 construct: purchased Ambit Biosciences (scanMAXX KINOMEscan)
T3 sequence (Q32MK0 1-819): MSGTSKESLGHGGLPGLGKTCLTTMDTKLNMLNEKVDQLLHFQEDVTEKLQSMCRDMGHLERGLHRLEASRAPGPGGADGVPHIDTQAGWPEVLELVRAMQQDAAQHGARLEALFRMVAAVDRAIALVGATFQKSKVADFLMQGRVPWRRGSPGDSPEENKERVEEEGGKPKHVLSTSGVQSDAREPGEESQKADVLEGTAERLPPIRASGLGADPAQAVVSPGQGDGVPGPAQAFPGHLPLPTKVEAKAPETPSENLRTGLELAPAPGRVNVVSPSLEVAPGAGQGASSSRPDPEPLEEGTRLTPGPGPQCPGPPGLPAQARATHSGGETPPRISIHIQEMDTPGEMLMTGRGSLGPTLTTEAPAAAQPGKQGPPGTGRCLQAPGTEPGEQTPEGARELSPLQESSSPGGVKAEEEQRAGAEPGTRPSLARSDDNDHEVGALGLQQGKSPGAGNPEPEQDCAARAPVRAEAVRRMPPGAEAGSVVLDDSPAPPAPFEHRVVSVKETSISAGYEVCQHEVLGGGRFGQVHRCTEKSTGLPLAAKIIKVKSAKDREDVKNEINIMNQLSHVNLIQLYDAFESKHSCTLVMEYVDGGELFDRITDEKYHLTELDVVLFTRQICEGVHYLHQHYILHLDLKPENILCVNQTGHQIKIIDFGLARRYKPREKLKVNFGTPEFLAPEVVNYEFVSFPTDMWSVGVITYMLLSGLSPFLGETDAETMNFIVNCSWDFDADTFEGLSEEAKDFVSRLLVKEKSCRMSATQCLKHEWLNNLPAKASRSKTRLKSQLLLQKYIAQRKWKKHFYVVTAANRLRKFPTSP

[4] = target: T4, panel of 442 kinases (Homo sapiens, UniProt P10721, A829P); conditions: kinase KIT(A829P); for remaining activity at 1 µM: read-out: % of control at 1 µM
T4 construct: purchased Ambit Biosciences (scanMAXX KINOMEscan)

[5] = target: T5, panel of 442 kinases (Homo sapiens, UniProt P11362); conditions: FGFR1; for remaining activity at 1 µM: read-out: % of control at 1 µM
T5 construct: purchased Ambit Biosciences (scanMAXX KINOMEscan)

[6] = target: T6, panel of 442 kinases (Homo sapiens, UniProt P43405); conditions: kinase SYK; for remaining activity at 1 µM: read-out: SYK (% of control at 1 µM)
T6 construct: purchased Ambit Biosciences (scanMAXX KINOMEscan)

[7] = target: T7, panel of 442 kinases (Homo sapiens, UniProt Q9Y5S2); conditions: kinase MRCKB; for remaining activity at 1 µM: read-out: % of control at 1 µM
T7 construct: purchased Ambit Biosciences (scanMAXX KINOMEscan)

[8] = target: T8, panel of 442 kinases (Homo sapiens, UniProt P00519); conditions: for remaining activity at 1 µM: read-out: % of control at 1 µM; for remaining activity at 10 µM: read-out: % of control at 10 µM
T8 construct: purchased Ambit Biosciences (scanMAXX KINOMEscan)

[9] = target: T9, panel of 442 kinases (Homo sapiens, UniProt P08581, Y1235D); conditions: kinase MET(Y1235D); for remaining activity at 1 µM: read-out: % of control at 1 µM
T9 construct: purchased Ambit Biosciences (scanMAXX KINOMEscan)

[10] = target: T10, panel of 442 kinases (Homo sapiens, UniProt P09619); conditions: kinase PDGFRB; for remaining activity at 1 µM: read-out: % of control at 1 µM
T10 construct: purchased Ambit Biosciences (scanMAXX KINOMEscan)

[11] = target: T11, panel of 442 kinases (Homo sapiens, UniProt Q15569); conditions: kinase TESK1; for remaining activity at 1 µM: read-out: TESK1 (% of control at 1 µM)
T11 construct: purchased Ambit Biosciences (scanMAXX KINOMEscan)

[12] = target: T12, panel of 442 kinases (Homo sapiens, UniProt P51955); conditions: kinase NEK2; for remaining activity at 1 µM: read-out: % of control at 1 µM
T12 construct: purchased Ambit Biosciences (scanMAXX KINOMEscan)
T12 sequence (P51955 1-445): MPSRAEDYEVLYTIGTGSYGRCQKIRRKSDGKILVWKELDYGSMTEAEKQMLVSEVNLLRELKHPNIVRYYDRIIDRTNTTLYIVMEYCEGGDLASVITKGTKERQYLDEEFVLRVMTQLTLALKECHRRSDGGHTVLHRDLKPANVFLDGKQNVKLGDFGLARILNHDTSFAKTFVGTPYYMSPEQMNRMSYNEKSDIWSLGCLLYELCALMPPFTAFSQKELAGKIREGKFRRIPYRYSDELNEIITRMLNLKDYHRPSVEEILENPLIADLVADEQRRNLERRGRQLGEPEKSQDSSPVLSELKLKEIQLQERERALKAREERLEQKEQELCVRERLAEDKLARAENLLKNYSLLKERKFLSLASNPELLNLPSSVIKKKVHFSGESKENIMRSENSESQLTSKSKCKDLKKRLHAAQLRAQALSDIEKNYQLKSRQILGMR

[13] = target: T13, panel of 442 kinases (Homo sapiens, UniProt P22607, G697C); conditions: FGFR3(G697C); for remaining activity at 1 µM: read-out: % of control at 1 µM
T13 construct: purchased Ambit Biosciences (scanMAXX KINOMEscan)

[14] = target: T14, panel of 442 kinases (Homo sapiens, UniProt P00519, H396P); conditions: for remaining activity at 1 µM: read-out: % of control at 1 µM; for remaining activity at 10 µM: read-out: % of control at 10 µM
T14 construct: purchased Ambit Biosciences (scanMAXX KINOMEscan)

[15] = 10 µM, read-out: % of control at 10 µM

T1 sequence (P04049 whole entry): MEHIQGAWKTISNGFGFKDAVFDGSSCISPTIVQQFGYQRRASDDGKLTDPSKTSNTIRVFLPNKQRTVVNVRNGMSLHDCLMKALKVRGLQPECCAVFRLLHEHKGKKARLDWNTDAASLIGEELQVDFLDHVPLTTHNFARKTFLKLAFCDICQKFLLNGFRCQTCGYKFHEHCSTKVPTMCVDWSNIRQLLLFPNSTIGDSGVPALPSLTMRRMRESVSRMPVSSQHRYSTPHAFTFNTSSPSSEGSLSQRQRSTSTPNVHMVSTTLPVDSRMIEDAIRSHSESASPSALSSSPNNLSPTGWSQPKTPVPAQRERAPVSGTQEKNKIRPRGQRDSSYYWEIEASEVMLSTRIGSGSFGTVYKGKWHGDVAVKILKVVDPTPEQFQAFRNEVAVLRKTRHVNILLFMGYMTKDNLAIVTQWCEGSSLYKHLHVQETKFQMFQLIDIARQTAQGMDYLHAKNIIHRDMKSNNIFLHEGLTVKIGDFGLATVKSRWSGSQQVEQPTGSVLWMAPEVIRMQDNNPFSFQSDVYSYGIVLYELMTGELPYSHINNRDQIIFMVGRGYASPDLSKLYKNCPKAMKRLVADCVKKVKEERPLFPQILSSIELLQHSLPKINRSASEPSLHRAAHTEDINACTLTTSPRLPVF
T2 sequence (P24723 whole entry): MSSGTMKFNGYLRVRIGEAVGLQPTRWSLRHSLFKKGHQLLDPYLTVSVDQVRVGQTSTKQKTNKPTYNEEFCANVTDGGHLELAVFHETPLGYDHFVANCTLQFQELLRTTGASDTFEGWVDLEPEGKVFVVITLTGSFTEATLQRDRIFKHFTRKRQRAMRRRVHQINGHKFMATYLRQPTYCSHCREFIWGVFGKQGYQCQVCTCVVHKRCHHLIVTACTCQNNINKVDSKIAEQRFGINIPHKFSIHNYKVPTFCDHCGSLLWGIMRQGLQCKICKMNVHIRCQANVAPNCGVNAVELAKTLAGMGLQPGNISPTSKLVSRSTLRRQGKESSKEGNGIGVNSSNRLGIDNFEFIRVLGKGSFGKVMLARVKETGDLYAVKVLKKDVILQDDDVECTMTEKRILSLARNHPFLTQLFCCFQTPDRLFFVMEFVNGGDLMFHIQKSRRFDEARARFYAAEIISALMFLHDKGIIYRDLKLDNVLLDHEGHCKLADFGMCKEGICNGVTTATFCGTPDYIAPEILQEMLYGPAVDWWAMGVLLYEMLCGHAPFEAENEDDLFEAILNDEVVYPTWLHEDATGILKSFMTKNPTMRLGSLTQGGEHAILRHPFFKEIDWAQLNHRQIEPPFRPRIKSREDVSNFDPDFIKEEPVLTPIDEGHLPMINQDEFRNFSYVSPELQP
T11 sequence (Q15569 whole entry): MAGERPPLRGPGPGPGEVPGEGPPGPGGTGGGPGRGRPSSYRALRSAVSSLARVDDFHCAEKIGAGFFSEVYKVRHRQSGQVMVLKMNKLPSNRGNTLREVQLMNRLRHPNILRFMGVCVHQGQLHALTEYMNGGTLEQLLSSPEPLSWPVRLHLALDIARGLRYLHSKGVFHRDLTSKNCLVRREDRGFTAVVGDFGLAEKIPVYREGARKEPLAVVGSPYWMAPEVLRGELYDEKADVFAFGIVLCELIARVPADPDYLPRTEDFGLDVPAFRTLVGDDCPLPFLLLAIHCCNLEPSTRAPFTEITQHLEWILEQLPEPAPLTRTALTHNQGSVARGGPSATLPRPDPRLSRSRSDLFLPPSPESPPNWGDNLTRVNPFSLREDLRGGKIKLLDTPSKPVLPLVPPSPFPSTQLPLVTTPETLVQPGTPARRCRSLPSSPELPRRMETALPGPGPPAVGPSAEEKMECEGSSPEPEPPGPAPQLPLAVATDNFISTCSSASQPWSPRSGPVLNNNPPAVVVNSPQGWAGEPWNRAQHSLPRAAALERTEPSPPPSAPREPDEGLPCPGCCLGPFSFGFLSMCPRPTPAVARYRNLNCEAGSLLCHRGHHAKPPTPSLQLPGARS
T4 sequence (P10721 26-976 A829P): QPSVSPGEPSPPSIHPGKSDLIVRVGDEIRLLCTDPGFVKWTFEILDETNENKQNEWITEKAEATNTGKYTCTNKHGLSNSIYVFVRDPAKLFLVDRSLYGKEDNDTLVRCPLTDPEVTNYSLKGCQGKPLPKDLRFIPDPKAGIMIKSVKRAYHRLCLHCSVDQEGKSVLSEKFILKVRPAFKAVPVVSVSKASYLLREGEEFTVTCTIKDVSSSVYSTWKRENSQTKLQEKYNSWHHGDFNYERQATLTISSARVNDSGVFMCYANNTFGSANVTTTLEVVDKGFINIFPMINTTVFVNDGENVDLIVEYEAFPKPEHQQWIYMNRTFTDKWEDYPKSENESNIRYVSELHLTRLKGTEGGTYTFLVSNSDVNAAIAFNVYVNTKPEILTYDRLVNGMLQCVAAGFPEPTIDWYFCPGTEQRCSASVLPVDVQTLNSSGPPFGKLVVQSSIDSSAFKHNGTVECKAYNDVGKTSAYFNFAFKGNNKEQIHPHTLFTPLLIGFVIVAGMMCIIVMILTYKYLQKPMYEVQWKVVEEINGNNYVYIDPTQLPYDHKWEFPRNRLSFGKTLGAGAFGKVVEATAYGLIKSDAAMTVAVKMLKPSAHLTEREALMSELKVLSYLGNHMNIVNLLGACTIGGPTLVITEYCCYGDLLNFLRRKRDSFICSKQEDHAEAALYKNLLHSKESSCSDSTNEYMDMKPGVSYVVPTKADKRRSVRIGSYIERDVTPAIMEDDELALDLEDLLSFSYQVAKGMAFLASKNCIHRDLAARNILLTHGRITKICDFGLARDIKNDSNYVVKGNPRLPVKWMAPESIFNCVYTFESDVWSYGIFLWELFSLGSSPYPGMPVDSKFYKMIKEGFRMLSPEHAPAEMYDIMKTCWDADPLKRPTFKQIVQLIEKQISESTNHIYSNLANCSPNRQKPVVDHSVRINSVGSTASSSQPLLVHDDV
T9 sequence (P08581 25-1390 Y1235D): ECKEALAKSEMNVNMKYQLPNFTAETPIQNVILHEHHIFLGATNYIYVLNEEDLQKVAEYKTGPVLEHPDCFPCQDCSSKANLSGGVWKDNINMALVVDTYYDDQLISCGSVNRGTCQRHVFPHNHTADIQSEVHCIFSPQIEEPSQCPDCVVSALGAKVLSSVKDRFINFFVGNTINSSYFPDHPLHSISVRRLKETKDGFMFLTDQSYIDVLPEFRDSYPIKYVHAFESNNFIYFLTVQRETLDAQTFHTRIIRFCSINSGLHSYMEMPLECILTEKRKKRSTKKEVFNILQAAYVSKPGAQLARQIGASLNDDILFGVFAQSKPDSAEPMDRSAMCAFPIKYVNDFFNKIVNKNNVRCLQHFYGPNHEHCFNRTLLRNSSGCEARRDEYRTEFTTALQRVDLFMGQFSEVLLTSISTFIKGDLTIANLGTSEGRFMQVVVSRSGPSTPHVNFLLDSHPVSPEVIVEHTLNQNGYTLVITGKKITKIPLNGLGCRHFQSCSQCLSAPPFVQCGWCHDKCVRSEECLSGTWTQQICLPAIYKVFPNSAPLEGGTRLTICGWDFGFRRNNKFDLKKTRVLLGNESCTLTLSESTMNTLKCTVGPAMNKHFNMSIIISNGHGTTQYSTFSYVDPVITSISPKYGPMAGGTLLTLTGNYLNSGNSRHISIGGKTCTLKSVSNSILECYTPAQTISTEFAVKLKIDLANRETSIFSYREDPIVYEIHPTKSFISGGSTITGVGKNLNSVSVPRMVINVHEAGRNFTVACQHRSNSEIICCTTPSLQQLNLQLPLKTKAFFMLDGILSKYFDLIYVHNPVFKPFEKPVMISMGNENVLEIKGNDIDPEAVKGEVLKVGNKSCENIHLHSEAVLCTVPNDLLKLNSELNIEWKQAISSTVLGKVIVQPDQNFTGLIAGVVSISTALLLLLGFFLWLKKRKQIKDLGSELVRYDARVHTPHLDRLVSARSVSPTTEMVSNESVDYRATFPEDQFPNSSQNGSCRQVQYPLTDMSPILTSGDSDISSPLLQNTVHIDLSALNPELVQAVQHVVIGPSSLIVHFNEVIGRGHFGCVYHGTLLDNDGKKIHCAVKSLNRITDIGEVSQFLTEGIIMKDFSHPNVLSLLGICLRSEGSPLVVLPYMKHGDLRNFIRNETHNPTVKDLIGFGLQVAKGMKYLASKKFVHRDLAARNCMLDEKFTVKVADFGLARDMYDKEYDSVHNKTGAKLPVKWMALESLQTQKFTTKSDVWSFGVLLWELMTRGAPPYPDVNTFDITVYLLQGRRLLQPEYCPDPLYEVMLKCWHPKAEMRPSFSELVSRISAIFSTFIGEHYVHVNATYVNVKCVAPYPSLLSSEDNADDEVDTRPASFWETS
T5 sequence (P11362 22-822): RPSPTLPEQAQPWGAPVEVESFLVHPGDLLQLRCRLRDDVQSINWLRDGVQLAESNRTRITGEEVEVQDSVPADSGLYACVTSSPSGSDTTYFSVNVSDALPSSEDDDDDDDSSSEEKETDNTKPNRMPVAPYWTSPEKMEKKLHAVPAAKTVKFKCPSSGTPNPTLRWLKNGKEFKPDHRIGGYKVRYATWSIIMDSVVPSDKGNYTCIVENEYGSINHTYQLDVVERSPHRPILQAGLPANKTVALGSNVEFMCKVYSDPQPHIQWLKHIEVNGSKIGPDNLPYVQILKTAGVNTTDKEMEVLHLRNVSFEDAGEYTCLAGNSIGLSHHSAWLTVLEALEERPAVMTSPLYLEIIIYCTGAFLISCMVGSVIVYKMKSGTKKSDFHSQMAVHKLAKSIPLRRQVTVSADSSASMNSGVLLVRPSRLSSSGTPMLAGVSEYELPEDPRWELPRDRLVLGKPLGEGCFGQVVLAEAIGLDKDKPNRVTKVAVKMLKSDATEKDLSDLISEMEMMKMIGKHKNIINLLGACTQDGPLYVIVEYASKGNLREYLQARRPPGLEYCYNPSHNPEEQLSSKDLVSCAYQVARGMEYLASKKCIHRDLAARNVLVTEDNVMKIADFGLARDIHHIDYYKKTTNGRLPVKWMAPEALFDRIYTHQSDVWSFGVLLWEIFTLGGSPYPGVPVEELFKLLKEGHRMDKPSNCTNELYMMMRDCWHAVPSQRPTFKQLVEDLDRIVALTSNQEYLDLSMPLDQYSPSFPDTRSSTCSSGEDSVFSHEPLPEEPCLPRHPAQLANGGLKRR

SMILES | remaining activity at 1 µM [1] | remaining activity at 1 µM [2] | remaining activity at 1 µM [3] | remaining activity at 1 µM [4] | remaining activity at 1 µM [5] | remaining activity at 1 µM [6] | remaining activity at 1 µM [7] | remaining activity at 1 µM ([8]; ABL1-nonphosphorylated) | remaining activity at 1 µM ([8]; ABL1-phosphorylated) | remaining activity at 1 µM [9] | remaining activity at 1 µM [10] | remaining activity at 1 µM [11] | remaining activity at 1 µM [12] | remaining activity at 1 µM [13] | remaining activity at 1 µM ([14]; ABL1(H396P)-nonphosphorylated) | remaining activity at 1 µM ([14]; ABL1(H396P)-phosphorylated) | also measured
Nc1cc(C(F)(F)F)c(-c2cc(N3CCOCC3)nc(N3CCOCC3)n2)cn1 [Buparlisib] | 100% | 99% | 100% | 100% | 100% | 98% | 100% | 100% | 86% | 100% | 100% | 92% | 84% | 86% | 99% | 96% | remaining activity at 10 µM ([1]; 10 µM, read-out: RAF1 (% of control at 10 µM)): 100%; remaining activity at 10 µM ([2]; 10 µM, read-out: PRKCH (% of control at 10 µM)): 100%; remaining activity at 10 µM [3, 15]: 100%; remaining activity at 10 µM [4, 15]: 98%; remaining activity at 10 µM [5, 15]: 100%; remaining activity at 10 µM ([6]; 10 µM, read-out: SYK (% of control at 10 µM)): 100%; remaining activity at 10 µM [7, 15]: 100%; remaining activity at 10 µM ([8]; ABL1-nonphosphorylated): 100%; remaining activity at 10 µM ([8]; ABL1-phosphorylated): 100%; remaining activity at 10 µM [9, 15]: 99%; remaining activity at 10 µM [10, 15]: 97%; remaining activity at 10 µM ([11]; 10 µM, read-out: TESK1 (% of control at 10 µM)): 100%; remaining activity at 10 µM [12, 15]: 86%; remaining activity at 10 µM [13, 15]: 100%; remaining activity at 10 µM ([14]; ABL1(H396P)-nonphosphorylated): 100%; remaining activity at 10 µM ([14]; ABL1(H396P)-phosphorylated): 100%
Cn1c(=O)n(-c2ccc(C(C)(C)C#N)cc2)c2c3cc(-c4cnc5ccccc5c4)ccc3ncc21 [Dactolisib, 2-methyl-2-[4-(3-methyl-2-oxo-8-quinolin-3-yl-2,3-dihydroimidazo[4,5-c]quinolin-1-yl)-phenyl] propionitrile] | 94% | 78% | 80% | 61% | 94% | 100% | 86% | 100% | 81% |  |  | 100% | 88% | 90% | 70% | 79% | 
COc1ncc(-c2ccc3nccc(-c4ccnnc4)c3c2)cc1NS(=O)(=O)c1ccc(F)cc1F [Omipalisib] | 100% | 100% | 100% | 100% | 94% | 100% | 100% | 100% | 98% | 100% | 96% | 73% | 100% | 68% | 100% | 100% | 
FC(F)c1nc2ccccc2n1-c1nc(N2CCOCC2)nc(N2CCOCC2)n1 [ZSTK474, 2-(difluoromethyl)-1-[4,6-di(4-morpholinyl)-1,3,5-triazin-2-yl]-1H-benzimidazole] | 73% | 98% | 92% | 90% | 100% | 100% | 80% | 100% | 100% | 92% | 100% | 96% | 87% | 100% | 100% | 100% | 
